Values after ≈ are worked out from the molar mass of the structure shown.

The conditions of the data set: buffer; pH 7.4; 200.0 µM.
In general, solubility (kinetic) refers to solubility judged after dilution from a stock solution rather than from solid. In turn, `CCCNC(=O)CNC(=S)N(Cc1ccccc1F)C1CCCCC1` came in with a solubility (kinetic) of 42.3 µg/mL (≈ 116 µM).

In the case of `O=C(NCCc1c[nH]c2ccccc12)c1cc([N+](=O)[O-])cc([N+](=O)[O-])c1`, the solubility (kinetic) came to 15.2 µg/mL (≈ 42.9 µM).

With `CC(=O)c1sc(C(C)(C)C)cc1NC(=O)CCC(=O)O`, the kinetic solubility was > 44.6 µg/mL.

On to `O=[N+]([O-])c1ccccc1CN1CCN(Cc2ccc3ccccc3c2)CC1`, for which the solubility (kinetic) was found to be 3.9 µg/mL (≈ 10.8 µM).

Regarding `CCOC(=O)C1=Nc2ccccc2/C1=C\c1c(O)n(C)c(=O)n(C)c1=O`, the kinetic solubility was found to be 46.5 µg/mL (≈ 131 µM).

In turn, `COCCCNC(=S)N1CCCC(c2nc3cc(C)c(C)cc3[nH]2)C1` (stereo unspecified) returned a solubility (kinetic) of 53.2 µg/mL (≈ 148 µM).

Consider `CCOc1ccc(NC(=O)Cc2ccc(S(=O)(=O)N3CCCCC3)cc2)cc1OCC`, for which the kinetic solubility was 7 µg/mL (≈ 15.7 µM).

In the case of `CC(=O)c1cccc(Nc2cc(C)nc3ccc(C)cc23)c1.Cl`, the solubility (kinetic) is 46.9 µg/mL.

As to `CC1=C(C(=O)NC(C)c2ccccc2)C2(CCC(C)CC2)OC1=O` (stereo unspecified), the solubility (kinetic) is 8.4 µg/mL (≈ 25.7 µM).

`CC(=O)N1c2ccc(C)cc2C(c2ccccc2)CC1C` (stereo unspecified) gave a solubility (kinetic) of 40.6 µg/mL (≈ 145 µM).

As to `CN(Cc1ccccc1)C(=O)COc1ccc(C(C)(C)C)cc1`, the solubility (kinetic) was < 0.7 µg/mL.

Molecule `CCOc1ccc(/C=C/c2[nH]c(=O)[nH]c(=O)c2[N+](=O)[O-])cc1` yielded a kinetic solubility of 13.2 µg/mL (≈ 43.5 µM).

As to `CN1CCC(N(C)C(=S)NCCc2ccccc2)CC1`, the solubility (kinetic) was > 43.7 µg/mL.

Take `O=S(=O)(Cc1ccccc1)NCCc1ccc(F)cc1`: the solubility (kinetic) was 34.3 µg/mL (≈ 117 µM).

`COc1ccc(/C=C/C(=O)NCCCNC(=O)/C=C/c2ccc(OC)c(OC)c2)cc1OC`: the kinetic solubility came out at 60 µg/mL (≈ 132 µM).

Take `CC1(C)CC(CC(=O)O)CC(C)(C)N1.Cl`: the solubility (kinetic) is > 35.4 µg/mL.

Molecule `O=C1C2C3C=CC(CC3)C2C(=O)N1c1ccc([N+](=O)[O-])cc1` (stereo unspecified) came in with a kinetic solubility of 3.4 µg/mL (≈ 11.4 µM).

The molecule `O=C(CC1NC(=S)NC1=O)c1ccc(Cl)cc1` (stereo unspecified) came in with a kinetic solubility of 3.2 µg/mL (≈ 11.9 µM).

For the molecule `COC(=O)/C=C1/SC(=NC(=O)c2ccc(OC)cc2)NC1=O`, the solubility (kinetic) was 9.2 µg/mL (≈ 28.7 µM).

As to `Cc1ccc(C2(O)CN3CCC2CC3)cc1.Cl` (stereo unspecified), the solubility (kinetic) was > 38.1 µg/mL.

Molecule `CCOC(=O)C1CCN(c2ncnc3c(C)csc23)CC1` came in with a kinetic solubility of 37.8 µg/mL (≈ 124 µM).

Regarding `N#CCC(=O)Nc1ccc(C(=O)Nc2cccnc2)cc1`, the kinetic solubility was > 42 µg/mL.

For the molecule `Nc1nc(SCCO)[nH]c(=O)c1NC(=O)c1ccco1`, the solubility (kinetic) is > 44.4 µg/mL.

`CN1CCN(C(=S)NC(=O)/C=C/c2cccs2)CC1` showed a kinetic solubility of 41.9 µg/mL (≈ 142 µM).

Turning to `CCOc1ccc2nc(SCC(=O)NCC3CCCO3)sc2c1` (stereo unspecified), the solubility (kinetic) was > 52.9 µg/mL.

On to `COc1ccc(C(=O)Nc2nc(-c3ccccc3)c(C(C)=O)s2)c(OC)c1`, for which the solubility (kinetic) was 0.7 µg/mL (≈ 1.83 µM).

Molecule `Br.C=CCn1c(C)csc1=Nc1ccccc1C` gave a solubility (kinetic) of 10.9 µg/mL.

`Nc1cc(N)nc(SCC(=O)NNC(=O)Cc2ccccc2)n1`: the solubility (kinetic) is > 49.9 µg/mL.

Regarding `Cc1ccc(Cc2cnc(NC(=O)C3=NCCN3)s2)cc1`, the kinetic solubility was found to be 11.5 µg/mL (≈ 38.3 µM).

Consider `CCCCOc1ccc(C(=O)N2CCN(c3ncccn3)CC2)cc1`, for which the kinetic solubility was 12.2 µg/mL (≈ 35.8 µM).

On to `COc1ccc(NC(=O)COC(=O)CNC(=O)C2CCCCC2)cc1OC`, for which the solubility (kinetic) was > 56.8 µg/mL.

Turning to `O=[N+]([O-])C1C(c2ccccc2)=NOC1c1ccccc1O` (stereo unspecified), the kinetic solubility is > 42.6 µg/mL.

`C=CCNC(=S)N(Cc1ccccc1)Cc1ccc(F)cc1` registered a kinetic solubility of 14 µg/mL (≈ 44.5 µM).

Molecule `CCN(CC)C(=O)c1ccc(-c2cccs2)s1` came in with a kinetic solubility of 32.6 µg/mL (≈ 123 µM).

Consider `C#Cc1ccc(CN2CCN(Cc3ccsc3)C(CCO)C2)cc1` (stereo unspecified), for which the solubility (kinetic) amounted to 36.3 µg/mL (≈ 107 µM).

Regarding `Cc1c(N2C(=O)CSC2c2ccco2)c(=O)n(-c2ccccc2)n1C` (stereo unspecified), the kinetic solubility is > 53.3 µg/mL.

`COc1ccc(NC(=O)/C=C/C(=O)O)c(OC)c1` displayed a kinetic solubility of 37 µg/mL (≈ 147 µM).

On to `CN(C)c1ccc(-n2cccc2/C=C/[N+](=O)[O-])cc1`, for which the kinetic solubility is < 0.2 µg/mL.

In turn, `O=C(Cn1cc(C(=O)c2ccccc2F)c2ccccc21)NC1CC1` returned a kinetic solubility of 2 µg/mL (≈ 5.95 µM).

`COc1ccc2[nH]cc(CCNC(=O)Nc3ccccc3C)c2c1` gave a solubility (kinetic) of 10.4 µg/mL (≈ 32.2 µM).

For the molecule `COc1ccc(S(=O)(=O)NCCCc2ccccc2)cc1`, the kinetic solubility turned out to be 40.8 µg/mL (≈ 134 µM).

Regarding `CCc1c(C)c(C#N)c2nc3ccccc3n2c1NC`, the kinetic solubility was 1.3 µg/mL (≈ 4.92 µM).

On to `C=CCn1c(O)c(C(C)=NCCCn2ccnc2)c(=O)[nH]c1=O`, for which the solubility (kinetic) is > 47.6 µg/mL.

Regarding `CN(C)/C=C/C(=O)c1cnc(-c2ccccn2)s1`, the solubility (kinetic) was > 38.9 µg/mL.

For `COc1cc(C(N)=O)cc(Cl)c1OC`, the kinetic solubility was > 32.3 µg/mL.

As to `CC(C)C(=O)Nc1ccc([N+](=O)[O-])c(C(F)(F)F)c1`, the solubility (kinetic) was > 41.4 µg/mL.

For `CCC(CC)C(=O)Nc1cccc(C(=O)NCCc2ccccc2)c1`, the kinetic solubility stood at 40.8 µg/mL (≈ 121 µM).

For `N#Cc1ccc(S(=O)(=O)Nc2ccc3ccccc3n2)cc1`, the kinetic solubility came to 27 µg/mL (≈ 87.3 µM).

With `Cc1[nH]c2ccccc2c1/C=N/NC(=O)c1ccccc1`, the solubility (kinetic) was > 41.6 µg/mL.

For the molecule `Cc1ccc(S(=O)(=O)Nc2ccc3[nH]ccc3c2)cc1`, the kinetic solubility is > 43 µg/mL.

Consider `O=C(O)/C=C/C(=O)Nc1ccc(OCc2ccccc2)cc1`, for which the kinetic solubility is > 44.6 µg/mL.

These data come from PubChem BioAssay AID1996.
